Holding throughout (type): functional
Assay [1] relates to Bacillus subtilis. Nature of the assay: Antibacterial activity against Bacillus subtilis assessed as diameter of inhibition zone at 50 ug/well after 24 hrs by agar well diffusion method. Conditions: for zone of inhibition at 50 µg/disc: read-out: DIZ. Background: Agar diffusion results depend on both activity and mobility in agar.
The test system of assay [2] is Pseudomonas aeruginosa. Put plainly: Antibacterial activity against Pseudomonas aeruginosa assessed as diameter of inhibition zone at 25 ug/well after 24 hrs by agar well diffusion method. Conditions: for zone of inhibition at 25 µg/disc: read-out: DIZ.
Assay [3] deals with Aspergillus niger. Put plainly: Antifungal activity against Aspergillus niger assessed as diameter of inhibition zone at 12.5 ug/well after 48 hrs by agar well diffusion method. Conditions: for zone of inhibition at 12.5 µg/disc: read-out: DIZ.
Assay [4] relates to Klebsiella pneumoniae. Nature of the assay: Antibacterial activity against Klebsiella pneumoniae assessed as diameter of inhibition zone at 50 ug/well after 24 hrs by agar well diffusion method. Conditions: for zone of inhibition at 50 µg/disc: read-out: DIZ.
For assay [5], the system named is Staphylococcus aureus. Put plainly: Antibacterial activity against Staphylococcus aureus assessed as diameter of inhibition zone at 50 ug/well after 24 hrs by agar well diffusion method. Conditions: for zone of inhibition at 50 µg/disc: read-out: DIZ.
Assay [6] deals with Penicillium chrysogenum. Put plainly: Antifungal activity against Penicillium chrysogenum assessed as diameter of inhibition zone at 100 ug/well after 48 hrs by agar well diffusion method. Conditions: for zone of inhibition at 100 µg/disc: read-out: DIZ.
Assay [7] deals with Bacillus subtilis. Nature of the assay: Antibacterial activity against Bacillus subtilis assessed as diameter of inhibition zone at 12.5 ug/well after 24 hrs by agar well diffusion method. Conditions: for zone of inhibition at 12.5 µg/disc: read-out: DIZ.
The test system of assay [8] is Penicillium chrysogenum. Nature of the assay: Antifungal activity against Penicillium chrysogenum assessed as diameter of inhibition zone at 50 ug/well after 48 hrs by agar well diffusion method. Conditions: for zone of inhibition at 50 µg/disc: read-out: DIZ.
Assay [9] relates to Staphylococcus aureus. Nature of the assay: Antibacterial activity against Staphylococcus aureus assessed as diameter of inhibition zone at 25 ug/well after 24 hrs by agar well diffusion method. Conditions: for zone of inhibition at 25 µg/disc: read-out: DIZ.
Assay [10] has as its system Aspergillus niger. Nature of the assay: Antifungal activity against Aspergillus niger assessed as diameter of inhibition zone at 50 ug/well after 48 hrs by agar well diffusion method. Conditions: read-out: DIZ.
Assay [11] concerns Pseudomonas aeruginosa. Nature of the assay: Antibacterial activity against Pseudomonas aeruginosa assessed as diameter of inhibition zone at 50 ug/well after 24 hrs by agar well diffusion method. Conditions: for zone of inhibition at 50 µg/disc: read-out: DIZ.
Assay [12] concerns Staphylococcus aureus. Put plainly: Antibacterial activity against Staphylococcus aureus assessed as diameter of inhibition zone at 12.5 ug/well after 24 hrs by agar well diffusion method.
Assay [13] has as its system Klebsiella pneumoniae. Put plainly: Antibacterial activity against Klebsiella pneumoniae assessed as diameter of inhibition zone at 100 ug/well after 24 hrs by agar well diffusion method. Conditions: for zone of inhibition at 100 µg/disc: read-out: DIZ.
Assay [14] has as its system Aspergillus niger. Nature of the assay: Antifungal activity against Aspergillus niger assessed as diameter of inhibition zone at 25 ug/well after 48 hrs by agar well diffusion method. Conditions: for zone of inhibition at 25 µg/disc: read-out: DIZ.
The subject of assay [15] is Klebsiella pneumoniae. Nature of the assay: Antibacterial activity against Klebsiella pneumoniae assessed as diameter of inhibition zone at 12.5 ug/well after 24 hrs by agar well diffusion method. Conditions: for zone of inhibition at 12.5 µg/disc: read-out: DIZ.
Assay [16] deals with Aspergillus niger. Nature of the assay: Antifungal activity against Aspergillus niger assessed as diameter of inhibition zone at 100 ug/well after 48 hrs by agar well diffusion method. Conditions: read-out: DIZ.
The test system of assay [17] is Pseudomonas aeruginosa. Nature of the assay: Antibacterial activity against Pseudomonas aeruginosa assessed as diameter of inhibition zone at 100 ug/well after 24 hrs by agar well diffusion method. Conditions: for zone of inhibition at 100 µg/disc: read-out: DIZ.
Assay [18] deals with Klebsiella pneumoniae. Put plainly: Antibacterial activity against Klebsiella pneumoniae assessed as diameter of inhibition zone at 25 ug/well after 24 hrs by agar well diffusion method. Conditions: for zone of inhibition at 25 µg/disc: read-out: DIZ.
The test system of assay [19] is Penicillium chrysogenum. Put plainly: Antifungal activity against Penicillium chrysogenum assessed as diameter of inhibition zone at 25 ug/well after 48 hrs by agar well diffusion method. Conditions: for zone of inhibition at 25 µg/disc: read-out: DIZ.
For assay [20], the system named is Bacillus subtilis. Put plainly: Antibacterial activity against Bacillus subtilis assessed as diameter of inhibition zone at 25 ug/well after 24 hrs by agar well diffusion method. Conditions: for zone of inhibition at 25 µg/disc: read-out: DIZ.
The subject of assay [21] is Pseudomonas aeruginosa. Nature of the assay: Antibacterial activity against Pseudomonas aeruginosa assessed as diameter of inhibition zone at 12.5 ug/well after 24 hrs by agar well diffusion method. Conditions: for zone of inhibition at 12.5 µg/disc: read-out: DIZ.
The subject of assay [22] is Staphylococcus aureus. Nature of the assay: Antibacterial activity against Staphylococcus aureus assessed as diameter of inhibition zone at 100 ug/well after 24 hrs by agar well diffusion method. Conditions: for zone of inhibition at 100 µg/disc: read-out: DIZ.
Assay [23] deals with Bacillus subtilis. Nature of the assay: Antibacterial activity against Bacillus subtilis assessed as diameter of inhibition zone at 100 ug/well after 24 hrs by agar well diffusion method. Conditions: for zone of inhibition at 100 µg/disc: read-out: DIZ.
The test system of assay [24] is Penicillium chrysogenum. Put plainly: Antifungal activity against Penicillium chrysogenum assessed as diameter of inhibition zone at 12.5 ug/well after 48 hrs by agar well diffusion method. Conditions: for zone of inhibition at 12.5 µg/disc: read-out: DIZ.

Activity calls are given as the source filed them. No cut-off for these calls is given here.

With `COc1ccc(-c2nnc(CSc3cc(C)nc(SCc4nnc(-c5ccc(OC)cc5)n4N)n3)n2N)cc1`, the “diameter of the inhibition zone (DIZ)” value in assay [1], in assay [2], in [3], in assay [4], in assay [5] and in [6] was “inactive” in each case. Moreover, the “diameter of the inhibition zone (DIZ)” value in assay [7], in [8], in assay [9], in assay [11], in [12] and in assay [13] was “inactive” throughout. Besides, the “diameter of the inhibition zone (DIZ)” value in assay [14], in [15], in assay [17], in assay [18], in assay [19] and in assay [20] was “inactive” each time. In addition, the “diameter of the inhibition zone (DIZ)” value in [21], in assay [22], in [23] and in [24] was “inactive” throughout. In addition, the zone of inhibition at 50 µg/disc in assay [10] came to 8 mm. Moreover, the zone of inhibition at 100 µg/disc in [16] turned out to be 10 mm.

Consider `Cc1ccc(-c2nnc(CSc3cc(C)nc(SCc4nnc(-c5ccc(C)cc5)o4)n3)o2)cc1`, for which the “diameter of the inhibition zone (DIZ)” value in assay [1], in assay [3], in [5], in assay [6], in [7] and in assay [8] was “inactive” throughout. In addition, the “diameter of the inhibition zone (DIZ)” value in assay [9], in assay [12], in [14], in assay [15], in [18] and in assay [19] was “inactive” each time. Moreover, the “diameter of the inhibition zone (DIZ)” value in assay [20], in assay [21], in assay [22], in assay [23] and in [24] was “inactive” throughout. Further, the zone of inhibition at 25 µg/disc in [2] is 8 mm. Also, the zone of inhibition at 50 µg/disc in assay [4] came to 8 mm; in assay [10], 7 mm; in assay [11], 10 mm. Also, the values for the zone of inhibition at 100 µg/disc in assay [13], in assay [16] and in assay [17] were 10 mm, 9 mm and 12 mm, respectively.

In the case of `Cc1cc(SCc2nnc(-c3ccccc3)o2)nc(SCc2nnc(-c3ccccc3)o2)n1`, the “diameter of the inhibition zone (DIZ)” value in assay [1], in assay [5], in assay [7], in assay [9], in assay [12] and in assay [15] was “inactive” each time. Further, the “diameter of the inhibition zone (DIZ)” value in assay [20] and in [22] was “inactive” throughout. Moreover, the zone of inhibition at 25 µg/disc in [2] came out at 9 mm; in assay [14], 16 mm; in assay [18], 7 mm; in assay [19], 10 mm. The results for the zone of inhibition at 12.5 µg/disc in assay [3], in assay [21] and in assay [24] were 14 mm, 7 mm and 8 mm, respectively. Also, the zone of inhibition at 50 µg/disc in assay [4] turned out to be 9 mm; in [8] it was 11 mm; in [10], 18 mm; in assay [11], 11 mm. Besides, the zone of inhibition at 100 µg/disc in assay [6] is 13 mm; in assay [13], 12 mm; in assay [16], 21 mm; in [17], 14 mm; in assay [23], 7 mm.

Turning to `Cc1cc(SCc2nnc(-c3ccc(Br)cc3)o2)nc(SCc2nnc(-c3ccc(Br)cc3)o2)n1`, the “diameter of the inhibition zone (DIZ)” value in assay [1], in [5], in assay [7], in assay [9], in [12] and in assay [20] was “inactive” each time. The “diameter of the inhibition zone (DIZ)” value in assay [22] and in assay [24] was “inactive” in each case. Further, the zone of inhibition at 25 µg/disc in [2] came to 11 mm; in assay [14] it was 15 mm; in [18], 10 mm; in assay [19], 7 mm. Besides, the zone of inhibition at 12.5 µg/disc in assay [3] worked out at 13 mm; in assay [15], 8 mm; in assay [21], 9 mm. Also, the zone of inhibition at 50 µg/disc is 12 mm in assay [4], 9 mm in [8], 17 mm in [10] and 13 mm in assay [11]. For the same compound, the zone of inhibition at 100 µg/disc came out at 11 mm in assay [6]; 15 mm in [13]; 19 mm in assay [16]; 15 mm in assay [17]; 8 mm in assay [23].

With `Cc1cc(SCc2nnc(-c3ccc([N+](=O)[O-])cc3)o2)nc(SCc2nnc(-c3ccc([N+](=O)[O-])cc3)o2)n1`, the zone of inhibition at 50 µg/disc in assay [1] stood at 13 mm; in assay [4], 19 mm; in assay [5], 8 mm; in assay [8], 16 mm; in assay [10], 24 mm; in assay [11] it was 16 mm. For the same compound, the zone of inhibition at 25 µg/disc is 14 mm in assay [2]; 7 mm in assay [9]; 22 mm in assay [14]; 17 mm in assay [18]; 14 mm in [19]; 11 mm in [20]. The zone of inhibition at 12.5 µg/disc in assay [3] came out at 20 mm; in assay [7] it was 9 mm; in [15] it was 15 mm; in assay [21], 11 mm; in assay [24], 12 mm. Also, the zone of inhibition at 100 µg/disc in assay [6] is 19 mm; in assay [13], 21 mm; in assay [16], 27 mm; in assay [17], 21 mm; in [22], 10 mm; in assay [23], 15 mm. In assay [12], the “diameter of the inhibition zone (DIZ)” value was “inactive”.

Turning to `Cc1cc(SCc2nnc(-c3ccc(Br)cc3)s2)nc(SCc2nnc(-c3ccc(Br)cc3)s2)n1`, the zone of inhibition at 50 µg/disc is 21 mm in [1]; 28 mm in assay [4]; 15 mm in assay [5]; 17 mm in [8]; 26 mm in [10]; 25 mm in assay [11]. Besides, the zone of inhibition at 25 µg/disc was determined as 23 mm in [2]; 13 mm in [9]; 24 mm in [14]; 26 mm in [18]; 15 mm in assay [19]; 19 mm in [20]. The zone of inhibition at 12.5 µg/disc in assay [3] was 22 mm; in assay [7] it was 17 mm; in assay [12] (read-out: DIZ), 11 mm; in assay [15] it was 24 mm; in [21], 19 mm; in assay [24], 13 mm. In addition, the zone of inhibition at 100 µg/disc is 20 mm in assay [6]; 31 mm in [13]; 30 mm in assay [16]; 29 mm in assay [17]; 17 mm in assay [22]; 24 mm in [23].

(Values after ChEMBL document CHEMBL4251634, “Synthesis and antimicrobial activity of pyrimidinyl 1,3,4-oxadiazoles, 1,3,4-thiadiazoles and 1,2,4-triazoles” (2018).)
